Laboratory results: US20260251650A1, “LATERAL FLOW DEVICE FOR […]'S DISEASE USING THE T14 PEPTIDE” (Neuro-Bio Ltd, priority 2022, published 2026)

Tests used:
[1] = test system: anti-T14 antibody 40 nm gold conjugates; test: Inhibition lateral flow test (half dipstick), peptide dotted on membrane; assay type: binding, rabbit; settings: peptide dotted at 1, 0.5 and 0.25 mg/ml on CN180 membrane, FIG. 10
Protocol: (§1) The detector reagent was a 40 nm gold particle which is passively conjugated to the antibodies. Conjugates were prepared for: AB16 (rabbit polyclonal), AB117 (rabbit monoclonal) and AB104 (rabbit monoclonal).
(§2) In this format, a gold conjugate is in liquid form (in the well) rather than dry enabling high throughput of the test conditions. The test line is “dotted” onto the membrane by pipette to facilitate evaluation of a range of conditions.
The nitrocellulose membrane was CN180.
(§3) • A) Inhibition Assay: T14 peptide • T30 peptide • B) Sandwich Assay: Rabbit polyclonal, AB16 • Rabbit monoclonal, AB117 • Rabbit monoclonal, AB104 • Rabbit monoclonal, AB102
Peptide (T14 or T30) was diluted to 1, 0.5 and 0.25 mg/ml in deionised water. The peptide was “dotted” onto CN180 nitrocellulose membrane (1 μl at each concentration) and the membrane dried for 15 minutes at 37° C. The goat anti-rabbit antibody was applied to the membrane as a control line.
• (i) 20 μl gold conjugate (neat) and 20 μl TBST (Tris buffered saline 1% Tween 20) added to Well 1; • (ii) The dipstick was added to Well 1; • (iii) The dipstick was run to completion (no liquid remaining); and • (iv) The dipstick was added to Well 2 containing 20 μl TBST only to wash the test strip.

[2] = test system: anti-T14 antibodies (conjugate and test line); test: Sandwich lateral flow test (half dipstick), peptide detection; assay type: binding, rabbit; settings: peptide at 0.1 mg/ml, FIG. 11
Protocol: as §1, §2, §3
Each antibody was “dotted” onto CN180 membrane (1 μl neat, i.e. 1 mg/ml, concentration) and the membrane dried for 15 mins at 37° C. The goat anti-rabbit antibody was applied to the membrane as a control line. Conjugate and test line antibody combinations were then evaluated in a matrix study in the lateral flow format.
• (i) 10 μl peptide (either T14 or T30 at 0.1 mg/ml) and 10 μl TBST (Tris buffered saline 1% Tween 20) added to Well 1; • (ii) The dipstick was added to Well 1; • (iii) The dipstick was run to completion (no liquid remaining); • (iv) The dipstick was added to Well 2 containing 20 μl conjugate; • (v) The dipstick was run to completion (no liquid remaining); and • (vi) The dipstick was added to Well 3 containing 20 μl TBST.

| Sequence | detection of peptide by inhibition LFT [1] | detection of peptide by sandwich LFT [2] |
| --- | --- | --- |
| KAEFHRWSSYMVHWKNQFDHYSKQDRCSDL (KAEFHRWSSYMVHWKNQFHDYSKQDRCSDL; listed as Homo sapiens) [T30, last 30 amino acid residues of tailed acetylcholinesterase] | able to detect | able to detect |
| AEFHRWSSYMVHWK (listed as Homo sapiens) [T14, 14 amino acid peptide derived from the C-terminus of acetylcholinesterase; biomarker] | able to detect | able to detect |
